17 compounds from US11976083B2, “Inhibitors of peptidylarginine deiminases” (Gilead Sciences, Inc., priority 2020, dated 2024) can be followed below.

In this assay the target is T1, human PAD4 (Homo sapiens, UniProt Q9UM07).
T1 construct: human PAD4 (NM_012387), A2-P663, was PCR amplified; His-SUMO (N, cleaved yes); made in house; host or cells: E. coli BL21(DE3)
The assay can be described thus: In vitro PAD4 BAEE biochemical assay. To be noted: BAEE substrate 3 mM, 5 nM PAD4, 2 mM calcium chloride; geometric mean of multiple experiments. The method in brief:
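Fluorescence read-out (ex 405/em 535 nm) of isoindole formed from ammonia, o-phthalaldehyde and DTT after EDTA stop. Reaction: 5 nM PAD4, 2 mM CaCl2, 3 mM BAEE, 2 h, 25 °C, after 30 min enzyme–compound preincubation. Normalised to BB-Cl-Amidine (50 µM) and DMSO controls.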

T1 sequence (Q9UM07 2-663): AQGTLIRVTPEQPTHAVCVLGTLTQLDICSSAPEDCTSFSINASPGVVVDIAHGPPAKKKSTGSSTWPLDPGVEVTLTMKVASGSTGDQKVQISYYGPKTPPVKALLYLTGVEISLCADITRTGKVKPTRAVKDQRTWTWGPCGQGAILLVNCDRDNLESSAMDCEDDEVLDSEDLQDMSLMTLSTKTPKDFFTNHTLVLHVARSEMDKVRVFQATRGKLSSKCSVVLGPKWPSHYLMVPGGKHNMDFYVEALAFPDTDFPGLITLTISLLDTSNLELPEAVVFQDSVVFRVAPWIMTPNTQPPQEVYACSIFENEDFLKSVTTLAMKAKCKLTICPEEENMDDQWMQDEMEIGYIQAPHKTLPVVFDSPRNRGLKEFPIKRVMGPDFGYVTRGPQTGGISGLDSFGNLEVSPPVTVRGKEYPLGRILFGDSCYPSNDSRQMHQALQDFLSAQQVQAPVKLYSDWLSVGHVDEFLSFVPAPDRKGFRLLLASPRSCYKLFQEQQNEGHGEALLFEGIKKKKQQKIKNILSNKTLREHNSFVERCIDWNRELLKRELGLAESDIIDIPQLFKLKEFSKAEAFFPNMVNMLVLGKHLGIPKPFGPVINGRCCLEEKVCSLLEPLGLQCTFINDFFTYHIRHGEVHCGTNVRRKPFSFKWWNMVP

Take `C[C@H]1NC(=O)c2ccc(Cl)nc2CCCCCn2c(-c3nc4cc(C(=O)N5C[C@H](N)[C@@H]6CC[C@H]5C6)cc(F)c4n3[C@@H]3C[C@H]3F)cc3ccc1nc32` [Example 473, (2~{R})-17-[5-[(1~{S},4~{R},5~{R})-4-amino-2-azabicyclo[3.2.1]octane-2-carbonyl]-7-fluoro-1-[(1~{R},2~{R})-2-fluorocyclopropyl]benzimidazol-2-yl]-8-chloro-2-methyl-3,9,16,22-tetrazatetracyclo[14.5.2.0^{5,10}.0^{19,23}] tricosa-1(22),5(10),6,8,17,19(23),20-heptaen-4-one]: the IC50 came to 44 nM.

On to `C[C@H]1NC(=O)C(C)(C)CCCCCCn2c(-c3nc4cc(C(=O)N[C@H]5CNCC[C@@H]5F)c(Cl)cc4n3C)cc3ccc1nc32` [Example 541, 6-chloro-~{N}-[(3~ {S),4~{S})-4-fluoro-3-piperidyl]-1-methyl-2-[(11~{R})-8,8,11-trimethyl-9-oxo-1,10,19-triazatricyclo[10.5.2.0^ {15,18}]nonadeca-12(19), 13,15(18),16-tetraen-17-yl]benzimidazole-5-carboxamide], for which the half-maximal inhibitory concentration (IC50) turned out to be 123 nM.

For `COc1cc(C(=O)N2CCC[C@@H](N)C2)cc2nc(-c3cc4ccc5cc4n3CCCCC[C@H]3C[C@@H]3C(=O)N[C@@H]5C)n(C)c12` [Example 164, (2~{R},5~{S},7~{S})-14-[5-[(3~{R})-3-aminopiperidine-1-carbonyl]-7-methoxy-1-methyl-benzimidazol-2-yl]-2-methyl-3,13-diazatetracyclo[11.5.2.0^{5,7}.0^{16,20}] icosa-1(19),14,16(20),17-tetraen-4-one], the half-maximal inhibitory concentration (IC50) was determined as 33 nM.

Regarding `CO[C@@H]1CCN(C(=O)c2cc(F)c3c(c2)nc(-c2cc4ccc5nc4n2CC(F)(F)CCC[C@@H]2C[C@H]2C(=O)N[C@@H]5C)n3[C@@H]2C[C@@H]2F)C[C@@H]1N` [Example 746, (2~{R},5~{R},7~{R})-14-[5-[(3~{S),4~{R})-3-amino-4-methoxy-piperidine-1-carbonyl]-7-fluoro-1-[(1~{R},2~{S})-2-fluorocyclopropyl]benzimidazol-2-yl]-11,11-difluoro-2-methyl-3,13,19-triazatetracyclo [11.5.2.0^{5,7}.0^{16,20}] icosa-1(19),14,16(20), 17-tetraen-4-one], the IC50 was 25 nM.

Take `COc1cc(C(=O)N2[C@H]3CC[C@@H]2[C@H](N)[C@H](OC(F)F)C3)cc2nc(-c3cc4ccc5nc4n3CCCCC[C@@H]3C[C@H]3C(=O)N[C@@H]5C)n(C)c12` [Example 581, (2~{R},5~{R},7~{R})-14-[5-[(1~{R},2~{S},3~ {R},5~{S})-2-amino-3-(difluoromethoxy)-8-azabicyclo[3.2.1]octane-8-carbonyl]-7-methoxy-1-methyl-benzimidazol-2-yl]-2-methyl-3,13,19-triazatetracyclo[11.5.2.0^ {5,7}.0^{16,20}]icosa-1(19), 14,16(20),17-tetraen-4-one]: the half-maximal inhibitory concentration (IC50) stood at 176 nM.

With `CO[C@@H]1CCN(C(=O)c2cc(F)c3c(c2)nc(-c2cc4ccc5nc4n2CCCCCc2nc4ccccc4cc2C(=O)N[C@@H]5C)n3C2CC2)C[C@@H]1N` [Example 829, (2~{R})-21-[5-[(3~{S},4~ {R})-3-amino-4-methoxy-piperidine-1-carbonyl]-1-cyclopropyl-7-fluoro-benzimidazol-2-yl]-2-methyl-3,13,20,26-tetrazapentacyclo [18.5.2.0^{5,14}.0^{7,1 2}.0^{23,27}]heptacosa-1(26),5(14),6,8,10,12,21,23(27), 24-nonaen-4-one], the IC50 was found to be 15 nM.

Regarding `COc1cc(C(=O)N2[C@H]3CC[C@@H]2[C@H](N)C3)cc2nc(-c3cc4ccc5nc4n3CCCCn3nccc3C(=O)N[C@@H]5C)c(C)n12` [Example 34, (2~{R})-15-[7-[(1~{R},2~{R},4~{S})-2-amino-7-azabicyclo[2.2.1]heptane-7-carbonyl]-5-methoxy-3-methyl-imidazo[1,2-a]pyridin-2-yl]-2-methyl-3,8,9,14,20-pentazatetracyclo[12.5.2.0^{5,9}.0^{17,21}] henicosa-1(20),5,7,15,17(21),18-hexaen-4-one], the concentration for half-maximal inhibition (IC50) worked out at 54 nM.

Turning to `COc1cc(C(=O)N2[C@H]3CC[C@@H]2[C@H](N)C3)cc2nc(-c3cc4ccc5nc4n3CCCCCOCC(C)(C)C(=O)N[C@@H]5C)n(C)c12` [Example 22, (12~{R})-18-[5-[(1~{R},2~{R},4~{S})-2-amino-7-azabicyclo[2.2.1]heptane-7-carbonyl]-7-methoxy-1-methyl-benzimidazol-2-yl]-9,9,12-trimethyl-7-oxa-1,11,20-triazatricyclo[11.5.2.0^{16,19}]icosa-13(20),14,16(19),17-tetraen-10-one], the IC50 came to 62 nM.

As to `C[C@H]1NC(=O)c2ccccc2CCCC(F)(F)Cn2c(-c3nc4cc(C(=O)N[C@H]5CNCC[C@@H]5F)c(F)cc4n3C)cc3ccc1nc32` [Example 597, 2-[(2~{R})-14,14-difluoro-2-methyl-4-oxo-3,16,22-triazatetracyclo[14.5.2.0^ {5,10}.0^{19,23}]tricosa-1(21),5(10),6,8,17,19,22-heptaen-17-yl]-6-fluoro-~ {N}-[(3~{S},4~{S})-4-fluoro-3-piperidyl]-1-methyl-benzimidazole-5-carboxamide], the half-inhibitory concentration (IC50) is 42 nM.

`C[C@H]1NC(=O)c2ccnn2CCCCCn2c(-c3nc4cc(C(=O)N5C[C@H](N)[C@@H]6CC[C@H]5C6)cc(F)c4n3C3CC3)cc3ccc1nc32` [Example 912, (2~{R})-16-[5-[(1~{S},4~{R},5~ {R})-4-amino-2-azabicyclo [3.2.1]octane-2-carbonyl]-1-cyclopropyl-7-fluoro-benzimidazol-2-yl]-2-methyl-3,8,9,15,21-pentazatetracyclo [13.5.2.0^{5,9}.0^{18,22}] docosa-1(21),5,7,16,18(22),19-hexaen-4-one]: the IC50 came to 17 nM.

Consider `COc1cc(C(=O)N2[C@H]3CC[C@@H]2[C@H](N)C3)cc2nc(-c3cc4ccc5nc4n3CCCCCn3ccc(n3)C(=O)N[C@@H]5C)c(C)n12` [Example 33, (2~{R})-15-[7-[(1~{R},2~{R),4~{S})-2-amino-7-azabicyclo[2.2.1]heptane-7-carbonyl]-5-methoxy-3-methyl-imidazo[1,2-a]pyridin-2-yl]-2-methyl-3,8,14,20,22-pentazatetracyclo[12.5.2.1^{5,8}.0^{17,21}] docosa-1(20),5(22),6,15,17(21),18-hexaen-4-one], for which the concentration for half-maximal inhibition (IC50) is 248 nM.

Regarding `COc1cc(C(=O)N2CC[C@@H](OC)[C@@H](N)C2)cc2nc(-c3cc4ccc5nc4n3CCCCCCC(F)(F)C(=O)N[C@@H]5C)n(C)c12` [Example 374, (11~{R})-17-[5-[(3~{S},4~{R})-3-amino-4-methoxy-piperidine-1-carbonyl]-7-methoxy-1-methyl-benzimidazol-2-yl]-8,8-difluoro-11-methyl-1,10,19-triazatricyclo[10.5.2.0^{15,18}]nonadeca-12(19),13,15(18),16-tetraen-9-one], the 50% inhibitory concentration (IC50) amounted to 121 nM.

Turning to `C[C@@H]1c2ccc3cc(-c4nc5cc(C(=O)N6C[C@H](N)[C@@H]7CC[C@H]6C7)cc(F)c5n4C4CC4)n(c3n2)CC(F)(F)CCC[C@H]2C[C@H]2C(=O)N1C` [Example 683, (2~{R},5~{R},7~{S})-14-[5-[(1~{S},4~{R},5~ {R})-4-amino-2-azabicyclo[3.2.1]octane-2-carbonyl]-1-cyclopropyl-7-fluoro-benzimidazol-2-yl]-11,11-difluoro-2,3-dimethyl-3,13,19-triazatetracyclo [11.5.2.0^{5,7}.0^{16,20}] icosa-1(19),14,16(20), 17-tetraen-4-one], the IC50 stood at 16 nM.

As to `C[C@H]1NC(=O)c2cnc(C(F)F)cc2CCCCCn2c(-c3nc4cc(C(=O)N5C[C@H](N)[C@@H]6CC[C@H]5C6)cc(F)c4n3C3CC3)cc3ccc1nc32` [Example 674, (2~{R})-17-[5-[(1~{S},4~ {R},5~{R})-4-amino-2-azabicyclo[3.2.1]octane-2-carbonyl]-1-cyclopropyl-7-fluoro-benzimidazol-2-yl]-8-(difluoromethyl)-2-methyl-3,7,16,22-tetrazatetracyclo[14.5.2.0^ {5,10).0^{19,23}]tricosa-1(22),5(10),6,8,17,19(23), 20-heptaen-4-one], the concentration for half-maximal inhibition (IC50) came to 17 nM.

Take `COc1cc(C(=O)N2CCC[C@@H](N)C2)cc2nc(-c3cc4ccc5nc4n3CCCCCc3c(cnn3C)C(=O)N[C@@H]5C)n(C)c12` [Example 170, (2~{R})-16-[5-[(3~{R})-3-aminopiperidine-1-carbonyl]-7-methoxy-1-methyl-benzimidazol-2-yl]-2,8-dimethyl-3,7,8,15,21-pentazatetracyclo[13.5.2.0^{5,9).0^{18,22}] docosa-1(21),5(9),6,16,18(22),19-hexaen-4-one]: the half-inhibitory concentration (IC50) came out at 118 nM.

In the case of `COc1cc(C(=O)N[C@H]2CNCC[C@@H]2F)cc2nc(-c3cc4ccc5nc4n3CCCCCc3nn(C)nc3C(=O)N[C@@H]5C)n(C)c12` [Example 185, 2-[(2~{R})-2,7-dimethyl-4-oxo-3,6,7,8,15,21-hexazatetracyclo[13.5.2.0^{5,9}.0^{18,22}]docosa-1(21),5,8,16,18(22),19-hexaen-16-yl]-~{N}-[(3~{S),4~{S})-4-fluoro-3-piperidyl]-7-methoxy-1-methyl-benzimidazole-5-carboxamide], the IC50 is 66 nM.

`COc1cc(C(=O)N2CCC[C@@H](N)C2)cc2nc(-c3cc4ccc5nc4n3C[C@H]3C[C@H]3COCC(C)(C)C(=O)N[C@@H]5C)n(C)c12` [Example 310, (3~{S},5~{R},12~{R})-18-[5-[(3~{R})-3-aminopiperidine-1-carbonyl]-7-methoxy-1-methyl-benzimidazol-2-yl]-9,9,12-trimethyl-7-oxa-1,11,20-triazatetracyclo[11.5.2.0^{3,5}.0^{16,19}] icosa-13(20),14,16(19),17-tetraen-10-one]: the IC50 stood at 135 nM.

As a reminder, the IC50 is the point on the concentration scale where inhibition reaches its midpoint.
